Earlier results on 28 compounds are cited in US10610500B2, “Chemosensory receptor ligand-based therapies” (Anji Pharma (US) LLC, priority 2011, dated 2020).

This series addresses T1, sweet receptor (Homo sapiens, UniProt Q7RTX0+Q8TE23).
T1 sequence (Q8TE23 20-839): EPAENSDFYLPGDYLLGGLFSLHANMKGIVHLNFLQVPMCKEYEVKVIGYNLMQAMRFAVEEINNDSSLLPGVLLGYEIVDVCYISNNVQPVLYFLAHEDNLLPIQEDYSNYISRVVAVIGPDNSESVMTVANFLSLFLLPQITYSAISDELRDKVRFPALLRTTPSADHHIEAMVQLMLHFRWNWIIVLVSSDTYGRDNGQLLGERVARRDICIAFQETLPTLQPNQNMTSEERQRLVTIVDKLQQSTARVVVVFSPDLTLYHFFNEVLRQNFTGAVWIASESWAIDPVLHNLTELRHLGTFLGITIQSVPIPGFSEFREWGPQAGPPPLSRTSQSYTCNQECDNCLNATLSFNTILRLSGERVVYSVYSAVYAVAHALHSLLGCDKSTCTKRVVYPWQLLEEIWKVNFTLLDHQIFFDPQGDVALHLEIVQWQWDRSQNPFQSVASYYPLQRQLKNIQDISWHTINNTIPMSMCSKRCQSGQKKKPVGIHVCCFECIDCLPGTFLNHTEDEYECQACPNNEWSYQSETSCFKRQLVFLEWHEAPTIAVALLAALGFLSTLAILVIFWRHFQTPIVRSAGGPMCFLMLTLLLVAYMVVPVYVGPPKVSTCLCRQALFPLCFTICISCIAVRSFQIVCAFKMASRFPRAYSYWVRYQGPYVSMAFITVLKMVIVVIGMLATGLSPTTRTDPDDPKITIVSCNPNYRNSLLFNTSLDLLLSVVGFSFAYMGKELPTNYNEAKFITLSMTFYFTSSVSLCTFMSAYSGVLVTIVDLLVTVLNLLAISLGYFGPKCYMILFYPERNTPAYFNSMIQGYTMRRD
T1 sequence (Q7RTX0 21-852): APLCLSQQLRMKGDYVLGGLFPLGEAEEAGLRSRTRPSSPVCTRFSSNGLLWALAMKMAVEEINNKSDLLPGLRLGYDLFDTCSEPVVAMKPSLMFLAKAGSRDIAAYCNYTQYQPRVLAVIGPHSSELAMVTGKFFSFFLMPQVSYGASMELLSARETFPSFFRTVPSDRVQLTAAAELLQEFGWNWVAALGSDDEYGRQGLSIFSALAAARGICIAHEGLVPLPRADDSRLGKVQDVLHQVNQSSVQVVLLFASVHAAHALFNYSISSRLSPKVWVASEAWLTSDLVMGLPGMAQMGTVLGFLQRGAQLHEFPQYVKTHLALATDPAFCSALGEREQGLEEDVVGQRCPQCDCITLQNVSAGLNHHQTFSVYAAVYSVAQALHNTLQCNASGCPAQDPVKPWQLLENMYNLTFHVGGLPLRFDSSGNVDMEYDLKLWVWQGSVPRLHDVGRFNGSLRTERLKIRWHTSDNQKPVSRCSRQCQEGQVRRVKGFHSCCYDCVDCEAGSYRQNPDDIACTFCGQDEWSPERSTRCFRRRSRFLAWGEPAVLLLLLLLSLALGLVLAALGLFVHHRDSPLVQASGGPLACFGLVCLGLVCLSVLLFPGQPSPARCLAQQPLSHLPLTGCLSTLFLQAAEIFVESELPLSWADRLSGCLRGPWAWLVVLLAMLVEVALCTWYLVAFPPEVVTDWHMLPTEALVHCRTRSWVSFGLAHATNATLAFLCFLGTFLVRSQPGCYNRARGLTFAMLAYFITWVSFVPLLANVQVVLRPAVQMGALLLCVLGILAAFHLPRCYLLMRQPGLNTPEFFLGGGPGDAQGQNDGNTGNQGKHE
Conditions: relative sweetness on a weight comparison basis to sucrose (=1.0); ranges: relative sweetness varied with the concentration of sucrose.
In the case of `COc1c(O)cc2c(c1O)C(=O)[C@H](OC(C)=O)[C@@H](c1ccc(O)c(O)c1)O2` [(2R,3R)-2,3-Dihydro-5,7,3',4'-tetrahydroxy-6-methoxy-3-O-acetylflavonol], the Sweetness/potency is reported as 25.
For `COc1c(O)cc2c(c1O)C(=O)[C@H](O)[C@@H](c1ccc(O)c(O)c1)O2` [(2R,3R)-2,3-Dihydro-5,7,3',4'-tetrahydroxy-6-methoxyflavonol], the Sweetness/potency was 15.
Regarding `COc1c(O)cc2c(c1O)C(=O)[C@H](OC(C)=O)[C@@H](c1ccc(O)cc1)O2` [(2R,3R)-2,3-Dihydro-5,7,4'-trihydroxy-6-methoxy-3-O-acetylflavonol], the Sweetness/potency is listed as 20.
In the case of `CC(=O)O[C@H]1C(=O)c2c(O)cc(O)cc2O[C@@H]1c1ccc(O)c(O)c1` [(2R,3R)-Dihydroquercetin 3-O-acetate], the Sweetness/potency is recorded as 80.
For the compound `CC(C)=CCC[C@](C)(O)[C@@H]1CCC(C)=CC1=O` [(+)-Hernandulcin], the Sweetness/potency is reported as 1,500.
Regarding `CC1=CC[C@@H]([C@@H](C)[C@H]2CC[C@@]3(C)[C@@H]4CC[C@H]5[C@](C)(C(=O)O)[C@@H](O[C@@H]6O[C@H](CO)[C@@H](O)[C@H](O)[C@H]6O)CC[C@@]56C[C@@]46CC[C@]23C)OC1=O` [Abrusoside A], the Sweetness/potency is 30.
For `COC(=O)[C@H]1O[C@@H](O[C@H]2[C@H](O[C@H]3CC[C@]45C[C@]46CC[C@]4(C)[C@@H]([C@H](C)[C@@H]7CC=C(C)C(=O)O7)CC[C@@]4(C)[C@@H]6CC[C@H]5[C@]3(C)C(=O)O)O[C@H](CO)[C@@H](O)[C@@H]2O)[C@H](O)[C@@H](O)[C@@H]1O` [Abrusoside B], the Sweetness/potency is recorded as 100.
`CC1=CC[C@@H]([C@@H](C)[C@H]2CC[C@@]3(C)[C@@H]4CC[C@H]5[C@](C)(C(=O)O)[C@@H](O[C@@H]6O[C@H](CO)[C@@H](O)[C@H](O)[C@H]6O[C@@H]6O[C@H](CO)[C@@H](O)[C@H](O)[C@H]6O)CC[C@@]56C[C@@]46CC[C@]23C)OC1=O` [Abrusoside C]: the Sweetness/potency is reported as 50.
As to `CC1=CC[C@@H]([C@@H](C)[C@H]2CC[C@@]3(C)[C@@H]4CC[C@H]5[C@](C)(C(=O)O)[C@@H](O[C@@H]6O[C@H](CO)[C@@H](O)[C@H](O)[C@H]6O[C@@H]6O[C@H](C(=O)O)[C@@H](O)[C@H](O)[C@H]6O)CC[C@@]56C[C@@]46CC[C@]23C)OC1=O` [Abrusoside D], the Sweetness/potency is listed as 75.
Consider `CC1(C)C[C@H]2C3=CC[C@@H]4[C@@]5(C)CC[C@H](O[C@@H]6O[C@H](CO[C@@H]7OC[C@H](O)[C@H](O)[C@H]7O[C@@H]7OC[C@@H](O)[C@H](O)[C@H]7O)[C@@H](O)[C@H](O)[C@H]6O)C(C)(C)[C@@H]5CC[C@@]4(C)[C@]3(C)C[C@@H](O)[C@@]23C[C@@H]1OC3=O` [Albiziasaponin A], for which the Sweetness/potency is listed as 5.
On to `CC1(C(=O)O)CCC2(C)CCC3(C)C(=CC(=O)C4C5(C)CCC(OC6OC(C(=O)O)C(O)C(O)C6OC6OCC(O)(CO)C6O)C(C)(C)C5CCC43C)C2C1` (stereo not shown) [Apioglycyrrhizin], for which the Sweetness/potency is 300.
On to `CC1(C)[C@@H](O[C@H]2O[C@H](C(=O)O)[C@@H](O)[C@H](O)[C@H]2O[C@@H]2OC[C@H](O)[C@H](O)[C@H]2O)CC[C@]2(C)[C@H]3C(=O)C=C4[C@@H]5C[C@@](C)(C(=O)O)CC[C@]5(C)CC[C@@]4(C)[C@]3(C)CC[C@@H]12` [Araboglycyrrhizin], for which the Sweetness/potency was 150.
Consider `C/C(=C\CC[C@@H](C)[C@H]1CC[C@@]2(C)[C@@H]3CC=C4[C@@H](CC[C@H](O[C@@H]5O[C@H](CO)[C@@H](O)[C@H](O)[C@H]5O)C4(C)C)[C@]3(C)[C@H](O)C[C@]12C)CO[C@@H]1O[C@H](CO[C@@H]2O[C@H](CO)[C@@H](O)[C@H](O)[C@H]2O)[C@@H](O)[C@H](O)[C@H]1O` [Carnosifloside VI], for which the Sweetness/potency is 77.
On to `COc1ccc(C2Oc3cc(O)cc(O)c3C(=O)C2OC(C)=O)cc1O` (stereo not shown) [Dihydroquercetin 3-O-acetate 4'-methyl ether], for which the Sweetness/potency was 400.
With `C=C1C[C@@]23CC[C@H]4[C@@](C)(CCC[C@@]4(C)C(=O)O[C@@H]4O[C@H](CO)[C@@H](O)[C@H](O)[C@H]4O)[C@@H]2CC[C@]1(O[C@@H]1O[C@H](CO)[C@@H](O)[C@H](O)[C@H]1O[C@@H]1O[C@@H](C)[C@H](O)[C@@H](O)[C@H]1O)C3` [Dulcoside A], the Sweetness/potency is on record as 30.
On to `C/C(=C\CO)CCC1=C(C=O)CC(OC2OCC(O)C(O)C2O)C2C(C)(CO)CCCC12C` (stereo not shown) [Gaudichaudioside A], for which the Sweetness/potency is recorded as 55.
For `Oc1cc2c(cc1O)[C@@H]1c3ccc(O)c(O)c3OC[C@]1(O)C2` [Hematoxylin], the Sweetness/potency is on record as 120.
As to `C/C(=C\CC/C(C)=C/CO[C@@H]1O[C@H](CO)[C@@H](O)[C@H](O[C@@H]2O[C@@H](C)[C@H](O)[C@@H](O)[C@H]2O)[C@H]1O[C@@H]1O[C@@H](C)[C@H](O)[C@@H](O)[C@H]1O)CC/C=C(\C)CO[C@@H]1O[C@H](CO)[C@@H](O)[C@H](O[C@@H]2O[C@@H](C)[C@H](O)[C@@H](O)[C@H]2O)[C@H]1O[C@@H]1O[C@@H](C)[C@H](O)[C@@H](O)[C@H]1O` [Mukurozioside IIb], the Sweetness/potency result was “ca. 1”.
Consider `C[C@@H]1O[C@@H](O[C@H]2[C@H](Oc3cc(O)c(C(=O)CCc4ccc(O)cc4)c(O)c3)O[C@H](CO)[C@@H](O)[C@@H]2O)[C@H](O)[C@H](O)[C@H]1O` [Naringin dihydrochalcone], for which the Sweetness/potency is reported as 300.
As to `COc1ccc(CCC(=O)c2c(O)cc(O[C@@H]3O[C@H](CO)[C@@H](O)[C@H](O)[C@H]3O[C@@H]3O[C@@H](C)[C@H](O)[C@@H](O)[C@H]3O)cc2O)cc1O` [Neohesperidin dihydrochalcone], the Sweetness/potency is 1,000.
With `C[C@@H]1O[C@@H](O[C@H]2O[C@@H]([C@@H](C)C3CC[C@@H]4[C@H]5CC(=O)[C@@H]6C[C@H](O[C@@H]7O[C@H](CO)[C@@H](O)[C@H](O)[C@H]7O[C@@H]7O[C@@H](C)[C@H](O)[C@@H](O)[C@H]7O)CC[C@]6(C)[C@@H]5CC[C@]34C)CC[C@@H]2C)[C@H](O)[C@H](O)[C@H]1O` (stereo partly shown) [Osladin], the Sweetness/potency is recorded as 500.
On to `CC1(C(=O)O)C=C2C3CCC4C5(CO)CCC(OC6OC(C(=O)O)C(O)C(O)C6OC6OC(C(=O)O)C(O)C(O)C6O)C(C)(C)C5CCC4(C)C3(C)CCC2(C)CC1` (stereo not shown) [Periandrin III], for which the Sweetness/potency is 92.
As to `CC1(C)[C@@H](O[C@@H]2O[C@H](C(=O)O)[C@@H](O)[C@H](O)[C@H]2O[C@@H]2O[C@H](C(=O)O)[C@@H](O)[C@H](O)[C@H]2O)CC[C@]2(C=O)[C@H]3CC[C@@H]4C5=C[C@@](C)(C(=O)O)CC[C@]5(C)CC[C@@]4(C)[C@]3(C)CC[C@@H]12` [Periandrin I], the Sweetness/potency is reported as 90.
As for `CC1(C(=O)O)C=C2C3CCC4C5(C=O)CCC(OC6OC(C(=O)O)C(O)C(O)C6OC6OCC(O)C(O)C6O)C(C)(C)C5CCC4(C)C3(C)CCC2(C)CC1` (stereo not shown) [Periandrin V], the Sweetness/potency is 220.
In the case of `C=C(C)[C@@H]1CC=C(/C=N/O)CC1` [Perillartine], the Sweetness/potency is 370.
Turning to `COc1ccc([C@H]2Cc3cccc(O)c3C(=O)O2)cc1O` [Phyllodulcin], the Sweetness/potency is listed as 400.
For the compound `C=C(C)C1CCC2(C)C(CC(OC3OCC(O)C(O)C3O)C3C(C(C)(O)C/C=C/C(C)(C)O)CCC32C)C1(C)CCC(=O)O` (stereo not shown) [Pterocaryoside B], the Sweetness/potency is 100.
Consider `Oc1ccc([C@H]2Oc3c(c(O)cc4c3[C@H]3c5c(O)cc(O)cc5O[C@@](c5ccc(O)cc5)(O4)[C@@H]3O)[C@H](c3c(O)cc(O)c4c3O[C@H](c3ccc(O)cc3)[C@@H](O)C4)[C@H]2O)cc1` [Selligueain A], for which the Sweetness/potency is recorded as 35.
